Experimental findings from US7879996B2, “Water soluble compounds” (priority 2007, dated 2011) are described below.

The series can be described thus: cationite (cation-exchanging) capacity. The format is physicochemical.

Turning to “2-([60] fullerene [1′,9′:3,4] cyclohexen-1-y1)-5,10,15,20-(tetra magnesium [(4-(N-(4-carboxy butyl) amino) phenyl 2,3-dicarboxylatel]) porphyrin iron (II) [PMC16]”, the cationite capacities is reported as 320-370 meqv/mmol.
